Results from patent US6586368B1, “Condensed heterocylic compounds and herbicides containing them” (Sumitomo Chemical Company, Limited, priority 1998, dated 2003).

What was measured:
Assay type in all cases: in vivo
[1] = test system: velvetleaf (Abutilon theophrasti); experiment: Test Example 1: foliage treatment of velvetleaf in pots, herbicidal activity; settings: emulsifiable concentrate sprayed over the foliage, dosage of 2000 g/ha, 1000 liters per hectare, plants 14 days after seeding, examined after 8 days in greenhouse
[2] = test system: velvetleaf (Abutilon theophrasti); experiment: Test Example 3: soil surface treatment, velvetleaf seeded in pots, herbicidal activity; settings: emulsifiable concentrate sprayed over the surface of the soil after seeding, dosage of 2000 g/ha, 1000 liters per hectare, examined after 9 days in greenhouse
[3] = test system: barnyardgrass (Echinochloa oryzicola); experiment: Test Example 4: flooded paddy field treatment of barnyardgrass in pots, herbicidal activity; settings: emulsifiable concentrate applied on the water surface of flooded pots, dosage of 1000 g/ha, 50 liters per are, plants 12 days after seeding, examined after 9 days in greenhouse

Row | SMILES | herbicidal activity: growth of velvetleaf [1] | herbicidal activity: germination of velvetleaf [2] | herbicidal activity: growth of barnyardgrass [3]
1 | Cn1c(C(F)(F)F)cc(=O)n(-c2coc3c(Cl)cc(Cl)cc23)c1=O [Compound 1-2, 3-(5,7-Dichlorobenzo[b]furan-3-yl)-1-methyl-6-(trifluoromethyl)-1,2,3,4-tetrahydropyrimidine-2,4-dione] | completely inhibited the growth | completely inhibited the germination | completely inhibited the growth
2 | COC(=O)c1ccc2occ(-n3c(=O)cc(C(F)(F)F)n(C)c3=O)c2c1 [Compound 1-303, Methyl 3-[3-methyl-2,6-dioxo-4-(trifluoromethyl)-1,2,3,6-tetrahydropyrimidin-1-yl]benzo[b]furan-5-carboxylate] | completely inhibited the growth | completely inhibited the germination | completely inhibited the growth
3 | COc1ccc2occ(-n3c(=O)cc(C(F)(F)F)n(C)c3=O)c2c1 [Compound 1-5, 3-(5-Methoxybenzo[b]furan-3-yl)-1-methyl-6-(trifluoromethyl)-1,2,3,4-tetrahydropyrimidine-2,4-dione] | completely inhibited the growth | completely inhibited the germination | completely inhibited the growth
4 | Cn1c(C(F)(F)F)cc(=O)n(-c2csc3cc(Cl)ccc23)c1=O [Compound 1-864] |  |  | completely inhibited the growth
5 | Cn1c(C(F)(F)F)cc(=O)n(-c2coc3ccc(C(N)=O)cc23)c1=O [Compound 1-293] | completely inhibited the growth | completely inhibited the germination | completely inhibited the growth
6 | CCOC(=O)C(C)Oc1ccc2occ(-n3c(=O)cc(C(F)(F)F)n(C)c3=O)c2c1 (stereo not drawn) [Compound 1-127, Ethyl 2-({3-[3-methyl-2,6-dioxo-4-(trifluoromethyl)-1,2,3,6-tetrahydropyrimidin-1-yl]benzo[b]furan-5-yl}oxy)propanoate] | completely inhibited the growth | completely inhibited the germination | completely inhibited the growth
7 | CCOC(=O)C=Cc1cc(Cl)c2occ(-n3c(=O)cc(C(F)(F)F)n(C)c3=O)c2c1 [Compound 1-378] | completely inhibited the growth | completely inhibited the germination | completely inhibited the growth
8 | Cn1c(C(F)(F)F)cc(=O)n(-c2coc3cc([N+](=O)[O-])ccc23)c1=O [Compound 1-282] | completely inhibited the growth | completely inhibited the germination | completely inhibited the growth
9 | Cc1cc2c(-n3c(=O)cc(C(F)(F)F)n(C)c3=O)coc2cc1[N+](=O)[O-] [Compound 1-361] | completely inhibited the growth | completely inhibited the germination | completely inhibited the growth
10 | O=C1C2=C(CCCC2)C(=O)N1c1noc2ccccc12 [Compound 2-4] | completely inhibited the growth |  | 
11 | CC(=O)Nc1ccc2occ(-n3c(=O)cc(C(F)(F)F)n(C)c3=O)c2c1 [Compound 1-24] | completely inhibited the growth | completely inhibited the germination | 
12 | CC(=O)N(C)c1ccc2occ(-n3c(=O)cc(C(F)(F)F)n(C)c3=O)c2c1 [Compound 1-28] | completely inhibited the growth | completely inhibited the germination | 
